Laboratory results from patent US20250197428A1, “INHIBITORS OF KIF18A AND USES THEREOF” (ACCENT THERAPEUTICS, INC., priority 2022, published 2025).
pIC50: −log10 of the molar value. Read-outs that look alike come from different tables or passages of the source.

Key:
[1] = Caco-2 permeation assay, bidirectional permeability; type: in vitro ADME; conditions: human, Caco-2, pH 7.4, 5 μM, Papp(B-A)/Papp(A-B)
Description: 1. Caco-2 Permeation Assay: Evaluation of the Bidirectional Permeabilities of Compounds.
Samples were analyzed through LC/MS/MS for estimating the apparent permeability coefficients (Papp) of compounds across Caco-2 cell monolayers. Caco-2 cells (American Type Culture Collection) were incubated and seeded onto HTS Transwell-96 Well Permeable Supports (Corning Corporation) for 14 days using a cell medium consisting of Dulbecco's Modified Eagle's Medium (DMEM) with high glucose and L-glutamine supplemented with 10% FBS, 1× penicillin-streptomycin mixture and 1×non-essential amino acids (NEAA). Cell monolayer integrity was measured using an automated tissue resistance measuring system (World Precision Instruments). Stock solutions of compounds and control compounds in DMSO were diluted with HBSS (10 mM HEPES, pH 7.4) to reach a final concentration of 5 μM with a final concentration of DMSO <0.1%. HBSS was then removed after 30 minutes of preincubation, and 75 μL of test compound was added to the apical compartment of the Transwell insert. The basolateral compartment was filled with 235 μL of HBSS (10 mM HEPES, pH 7.4) containing 2% BSA. Rate of drug transport in the basolateral to apical direction was obtained by adding 235 μL of test compound to the receiver plate wells (basolateral compartment) and filling with 75 μL of HBSS (10 mM HEPES, pH 7.4) containing 2% BSA. Time 0 samples were prepared by transferring 25 μL of 5 μM working solution to wells of the 96-deepwell plate containing 25 μL HBSS (10 mM HEPES and 2% BSA, pH 7.4), followed by the addition 200 μL of cold methanol containing appropriate internal standards (100 nM alprazolam, 200 nM labetalol, 200 nM caffeine and 200 nM diclofenac). After incubating at 37° C. for 2 h, 25 μL samples from donor sides (apical compartment) were transferred to a 96-well plate containing 25 μL HBSS (10 mM HEPES and 2% BSA, pH 7.4). 25 μL samples from receiver sides (basolateral compartment) were removed and transferred to a new plate containing 25 μL HBSS (10 mM HEPES, pH 7.4). 200 μL of cold methanol containing internal standards (100 nM alprazolam, 200 nM labetalol, 200 nM caffeine and 200 nM diclofenac) was added to terminate the reaction. Samples were vortexed for 5 minutes and then centrifuged at 3,220 g for 40 minutes. An aliquot of 100 μL of the supernatant is mixed with 100 μL of ultra-pure water for LC-MS/MS analysis. All incubations are performed in duplicate. Solutions were discarded from the transwell plate. 100 μL Lucifer Yellow solution (100 μM in HBSS) was added to each well of transwell insert and 300 μL of HBSS to each well of receiver. After incubating at 37° C. for 30 minutes, 80 μL was aliquotted from each well of apical and basolateral sides to a solid black plate. The plate was then read with Tecan Infinite™ M 200 (Excitation/Emission wavelength […]).
All calculations were carried out using Microsoft Excel. Peak areas were determined from extracted ion chromatograms. The leakage of Lucifer Yellow, in unit of percentage (%), can be calculated using the following equation: […]
LY leakage of <1% is acceptable to indicate the well-qualified Caco-2 monolayers. The apparent permeability coefficient (Papp), in units of centimeter per second, can be calculated for Caco-2 drug transport assays using the following equation: […]
Where VA is the volume (in mL) in the receiver well (0.235 mL for Ap→Bl flux and 0.075 mL for Bl→Ap flux), Area is the surface area of the membrane (0.143 cm^2 for HTS Transwell-96 Well Permeable Supports), and time is the total transport time in seconds. The efflux ratio can be determined using the following equation: […]
Where Papp (B-A) indicates the apparent permeability coefficient in basolateral to apical direction, and Papp (A-B) indicates the apparent permeability coefficient in apical to basolateral direction.
The recovery can be determined using the following equation: […]

OVCAR-3 cells = test: In vitro anti-proliferative activity assay in cancer cell line OVCAR-3 (CellTiter-Glo, 4- or 7-day); type: cell-based; conditions: Homo sapiens, read-out: OVCAR-3 cellular antiproliferation assay IC50
KIF18A = KIF18A (Homo sapiens (Human), UniProt Q8NI77); test: KIF18A Biochemical Assay (ATPase, ADP-Glo)
Sequence of KIF18A (Q8NI77 1-367): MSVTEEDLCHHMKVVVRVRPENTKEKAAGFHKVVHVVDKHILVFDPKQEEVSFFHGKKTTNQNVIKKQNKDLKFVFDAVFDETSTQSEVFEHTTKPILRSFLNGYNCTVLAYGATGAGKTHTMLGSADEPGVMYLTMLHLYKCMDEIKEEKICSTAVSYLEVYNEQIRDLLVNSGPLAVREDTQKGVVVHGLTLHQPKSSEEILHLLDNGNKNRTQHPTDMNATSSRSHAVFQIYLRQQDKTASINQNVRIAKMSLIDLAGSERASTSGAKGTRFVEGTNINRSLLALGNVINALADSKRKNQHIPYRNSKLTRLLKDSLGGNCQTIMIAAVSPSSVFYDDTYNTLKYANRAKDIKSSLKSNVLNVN
Sequence of KIF18A (P02550 whole entry partner): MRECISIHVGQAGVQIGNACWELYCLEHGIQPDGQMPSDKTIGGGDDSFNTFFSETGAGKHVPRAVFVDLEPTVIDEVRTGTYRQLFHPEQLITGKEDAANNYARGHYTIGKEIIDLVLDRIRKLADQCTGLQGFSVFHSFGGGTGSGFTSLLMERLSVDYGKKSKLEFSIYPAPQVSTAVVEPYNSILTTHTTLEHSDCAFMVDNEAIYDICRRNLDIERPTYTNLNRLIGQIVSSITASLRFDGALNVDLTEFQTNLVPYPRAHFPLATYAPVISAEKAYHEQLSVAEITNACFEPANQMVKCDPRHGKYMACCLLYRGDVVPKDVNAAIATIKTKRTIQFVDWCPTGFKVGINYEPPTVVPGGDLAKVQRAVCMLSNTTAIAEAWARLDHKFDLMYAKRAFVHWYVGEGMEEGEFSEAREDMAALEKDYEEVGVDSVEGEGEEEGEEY
Sequence of KIF18A (P02554 whole entry partner): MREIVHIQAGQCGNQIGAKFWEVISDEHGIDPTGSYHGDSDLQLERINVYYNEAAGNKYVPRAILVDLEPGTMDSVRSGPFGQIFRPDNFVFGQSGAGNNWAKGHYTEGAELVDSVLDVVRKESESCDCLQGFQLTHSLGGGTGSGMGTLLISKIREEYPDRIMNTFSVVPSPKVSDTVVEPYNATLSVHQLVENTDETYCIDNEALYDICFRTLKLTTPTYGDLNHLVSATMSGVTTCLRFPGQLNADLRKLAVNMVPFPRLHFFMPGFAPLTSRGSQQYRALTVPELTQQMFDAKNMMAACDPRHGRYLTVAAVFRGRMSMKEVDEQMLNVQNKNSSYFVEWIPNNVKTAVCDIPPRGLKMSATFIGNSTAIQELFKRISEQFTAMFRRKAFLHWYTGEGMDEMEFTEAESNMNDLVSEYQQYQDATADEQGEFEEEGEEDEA

Compound	efflux ratio at 2 h, 5 μM [1]	pIC50 (OVCAR-3 cells; OVCAR-3, 168 h, 7-day assay)	pIC50 (KIF18A)	pIC50 (OVCAR-3 cells; OVCAR-3, 96 h, 4-day assay)
Cc1cc(NC(=O)c2cnc(NS(=O)(=O)CCO)cc2N2CC[Si](C)(C)CC2)nc(N2CCC(F)(F)CC2)n1 [Example 106]	< 10	> 7.00	> 7.00	–
CC(CO)S(=O)(=O)Nc1ccc(C(=O)Nc2cccc(OCCC(F)(F)F)n2)c(N2CC[Si](C)(C)CC2)c1 (stereo not drawn) [Example 113]	< 10	6.30 to 7.00	> 7.00	–
C[Si]1(C)CCN(c2cc(NS(=O)(=O)CCO)ccc2C(=O)Nc2cncc(N3CCC(F)(F)CC3)n2)CC1 [Example 108]	< 10	> 7.00	> 7.00	–
C[Si]1(C)CCN(c2cc(NS(=O)(=O)CCN)ccc2C(=O)Nc2cccc(N3CCC(F)(F)CC3)n2)CC1 [Example 100]	< 10	6.30 to 7.00	> 7.00	–
Cc1cc(NC(=O)c2ccc(NS(=O)(=O)CCO)cc2N2CC[C@@]3(C(F)F)C[C@H]3C2)nc(N2CCC(F)(F)CC2)c1 [Example 48, 2-((1R,6S)-6-(difluoromethyl)-3-azabicyclo[4.1.0]heptan-3-yl)-N-(6-(4,4-difluoropiperidin-1-yl)-4-methylpyridin-2-yl)-4-((2-hydroxyethyl)sulfonamido)benzamide]	≥ 10	–	> 7.00	> 7.00
Cc1cc(NC(=O)c2ccc(NS(=O)(=O)CCO)cc2N2CC[Si](C)(C)CC2)nc(N2CCOC3(CC3)C2)n1 [Example 102]	≥ 10	> 7.00	> 7.00	–
C[Si]1(C)CCN(c2cc(NS(=O)(=O)CCO)ccc2C(=O)Nc2ccnc(N3CCCC(C#N)C3)n2)CC1 (stereo not drawn) [Example 94]	< 10	–	–	6.30 to 7.00
C[Si]1(C)CCN(c2cc(NS(=O)(=O)CCO)ccc2C(=O)Nc2cccc(OC[C@@H](O)C(F)(F)F)n2)CC1 [Example 121]	< 10	> 7.00	> 7.00	–
CNS(=O)(=O)Nc1ccc(C(=O)Nc2cc(C)nc(C3CCC(F)(F)CC3)n2)c(N2CC[Si](C)(C)CC2)c1 [Example 118]	< 10	6.30 to 7.00	> 7.00	–
C[Si]1(C)CCN(c2cc(NS(=O)(=O)CCO)c(F)cc2NC(=O)c2ccnc(N3CCC(F)(F)CC3)n2)CC1 [Example 90]	< 10	6.30 to 7.00	–	–
Cc1cc(NC(=O)c2ccc(NS(=O)(=O)CCO)cc2N2CC[Si](C)(C)CC2)nc(N2CCC3(CC3)C2)n1 [Example 21]	< 10	–	6.30 to 7.00	6.30 to 7.00
C[Si]1(C)CCN(c2cc(NS(=O)(=O)CCO)ccc2C(=O)Nc2cccc(OCC(O)C(F)(F)F)n2)CC1 (stereo not drawn) [Example 119]	< 10	> 7.00	> 7.00	–
Cc1cc(NC(=O)c2ccc(NS(=O)(=O)NCCO)cc2N2CC[C@]3(C(F)F)C[C@@H]3C2)nc(N2CCC(F)(F)CC2)n1 [Example 56]	≥ 10	6.30 to 7.00	> 7.00	–
CC1CN(c2nccc(NC(=O)c3ccc(NS(=O)(=O)CCO)cc3N3CC[Si](C)(C)CC3)n2)CCO1 (stereo not drawn) [Example 11]	< 10	–	> 7.00	> 7.00
Cc1cc(NC(=O)c2ccc(NS(=O)(=O)CCO)cc2N2CC[Si](C)(C)CC2)nc(N2CCC(F)(F)CC2)c1 [Example 8, N-(6-(4,4-difluoropiperidin-1-yl)-4-methylpyridin-2-yl)-2-(4,4-dimethyl-1,4-azasilinan-1-yl)-4-((2-hydroxyethyl)sulfonamido)benzamide]	< 10	–	6.30 to 7.00	> 7.00
Cc1cc(NC(=O)c2ccc(NS(=O)(=O)[C@H](C)CO)cc2N2CC[Si](C)(C)CC2)nc(N2CCC(F)(F)CC2)n1 [Example 111]	≥ 10	> 7.00	> 7.00	–
C[Si]1(C)CCN(c2cc(NS(=O)(=O)CCO)ccc2NC(=O)c2ccnc(OCCC(F)(F)F)n2)CC1 [Example 88]	< 10	6.00 to 6.30	6.30 to 7.00	–
Cc1cc(NC(=O)c2ccc(NS(=O)(=O)CCO)cc2N2CCC3(C)C(C2)C3(F)F)nc(N2CCC(F)(F)CC2)n1 (stereo not drawn) [Example 28, 2-(7,7-difluoro-6-methyl-3-azabicyclo[4.1.0]heptan-3-yl)-N-(2-(4,4-difluoropiperidin-1-yl)-6-methylpyrimidin-4-yl)-4-((2-hydroxyethyl)sulfonamido)benzamide]	< 10	–	> 7.00	6.30 to 7.00
C[Si]1(C)CCN(c2cc(S(=N)(=O)C3CC3)ccc2C(=O)Nc2cccc(N3CCC(F)(F)CC3)n2)CC1 (stereo not drawn) [Example 120]	< 10	> 7.00	> 7.00	–
Cc1cc(NC(=O)c2c(F)cc(NS(=O)(=O)CCO)cc2N2CC[Si](C)(C)CC2)nc(N2CCC(F)(F)CC2)n1 [Example 110]	< 10	> 7.00	> 7.00	–
Cc1cc(NC(=O)c2ccc(NS(=O)(=O)CCO)nc2N2CC[Si](C)(C)CC2)nc(N2CCC(F)(F)CC2)n1 [Example 109]	< 10	6.00 to 6.30	> 7.00	–
O=C(Nc1cccc(N2CCC(F)(F)CC2)n1)c1ccc(NS(=O)(=O)CCO)cc1N1CC[C@@]2(C(F)F)C[C@H]2C1 [Example 66]	< 10	> 7.00	> 7.00	–
COC[C@@]12CCN(c3cc(NS(=O)(=O)CCO)ccc3C(=O)Nc3cc(C)nc(N4CCC(F)(F)CC4)n3)C[C@@H]1C2 (single isomer, unassigned) [Example 49b]	< 10	> 7.00	> 7.00	–
O=C(Nc1ccnc(N2CCC(F)(F)CC2)n1)c1c(F)cc(NS(=O)(=O)CCO)cc1N1CC[C@@]2(C(F)F)C[C@H]2C1 [Example 70]	≥ 10	> 7.00	> 7.00	–
Cc1cc(NC(=O)c2ccc(NS(=O)(=O)CCO)cc2N2CC[C@]3(C(F)F)C[C@@H]3C2)nc(N2CCC(F)(F)CC2)n1 [Example 58]	≥ 10	> 7.00	> 7.00	–
C[Si]1(C)CCN(c2cc(NS(=O)(=O)CCO)ccc2NC(=O)c2cccc(N3CCC(F)(F)CC3)n2)CC1 [Example 96]	< 10	–	–	> 7.00
